The results in this text go back to US20080145313A1, “Compositions and Methods for the Treatment and Prevention of Neoplastic Disorders” (Genesis Research & Development Corporation Limited, priority 2006, published 2008).

Where two headings read alike, the source gives them in different places.

In general, IC50 refers to the point on the concentration scale where inhibition reaches its midpoint.

For one data set, the system named is A549 tumors. Description: Uptake of Alexa 555-labeled siRNA into A549 tumor cells in vivo after intratumoral injection. The arrangement: species or system mouse. Particulars: 25 μg i.t. The protocol: An Alexa 555-labeled control siRNA was used to determine the cellular uptake of siRNA in tumor tissues when given via intratumoral (i.t.) injection. A549 cells (6−8×10^6 cells) were s.c. inoculated into CD-1 nude mice. Once the A549 tumors reached a size of approximately 100 mm^3, mice were divided into two groups of four mice each. The Alexa 555-labeled Stealth™ siRNA (SEQ ID NO: 5111 (DNA), and SEQ ID NO: 5300 (RNA); Invitrogen Corp.) at a dose of 25 μg (in 50 μl) was injected into tumors of one group. 50 μl PBS was injected into tumors of a negative control group. Tumors were harvested at 6 and 24 h after injection and placed in a labeled cryomold (Tissue-TeK® Crymold®; ProSciTech, Thuringowa, Queensland, Australia) and covered with OCT tissue freezing medium (O.C.T. Compound, ProSciTech). The mold was gently submerged in liquid nitrogen for approximately one minute until OCT turned white and opaque. Tissues were stored at minus 80° C. until sections were cut. Tissues were allowed to reach −20° C. before processing in a Leica Cryostat (Leica Microsystems, Inc., Bannockburn Ill.) at 10 microns. Sections were picked up on Super Frost Plus slides (Esco, Biolab Scientific, New Zealand). After air-drying, sections were fixed in freshly prepared 2% paraformaldehyde solution for 2 minutes at room temperature and then rinsed in PBS to remove the fixative. The slides were mounted in Prolong Gold antifade reagent with DAPI (Molecular Probes®, Invitrogen Corp.), covered with cover slips and sealed to the slides with clear nail polish. The slides were stored at 4° C. in the dark. Fluorescence in the tumor samples was visualized using a Zeiss Axioskop Microscope (Carl Zeiss microimaging, Inc., Thornwood N.Y.) and Leica SP-2 Confocal Microscope (Leica Microsystems, Inc.). Autofluorescence in tumor tissues was very low in all filters examined (green, red and UV). […]

The test system of data set [1] is A549 cells. Description: MTT cell proliferation assay of A549 cells transfected with thymidylate synthase siRNA. The format is cell-based, human. To be noted: 6, 12 and 50 nM siRNA; 72 h. Here is the method:
siRNA mediated silencing in Human A549 cells A549 cells (ATCC No. CCL-185), a human lung cancer cell line, were cultured in RPMI 1640 medium with 5% v/v dialyzed fetal calf serum. Cells were seeded at a density of 2×10^4 cells/100 μl in 96-well plates. Stealth™ siRNA duplexes targeting the thymidylate synthase (SEQ ID NO: 23) gene were transfected at concentrations of 6, 12, and 50 nM into the A549 cells using Lipofectamine 2000 transfection reagent (Invitrogen). After 72 h, cell viability was assessed by measuring cell proliferation using a standard MTT assay (Mosman, J. Immunol. Methods 65:55-63, 1983).

Data set [2] deals with A549 cells. Nature of the data set: Growth inhibition of siRNA-transfected A549 cells, SYBR Green I DNA content. The format is cell-based, human. Particulars: 10 nM siRNA; DNA content 96 hours after transfection. In outline: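 A549 cells reverse-transfected with 10 nM Stealth siRNAs via Lipofectamine RNAiMAX, seeded at 5×10^3 cells/cm^2 in RPMI 1640/10% FCS; non-specific siRNA control. DNA content read 96 h post-transfection by SYBR Green I fluorescence (ex 485/em 535 nm) after freeze-thaw and Triton X-100 lysis; mean of three wells.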

The test system of the next data set is HCT-116 cells. Nature of the data set: 5FU toxicity in HCT-116 cells after TYMS or DHFR knockdown, SYBR Green. The class given is cell-based. Particulars: cells transfected with 0.1 nM siRNA; 5FU continuous for 3 days; read-out: IC50 value of 5FU following TYMS knockdown, HCT-116. Here is the method:
(§1) HCT-116 and A549 cells were transfected as described above with 0.1, 1.0 and 10 nM of three TYMS-specific siRNAs, labeled TYMS-1, TYMS-2 and TYM-3 (SEQ ID NO: 4833-4835 (DNA), and SEQ ID NO: 5139-5141 (RNA), or 1.0 and 10 nM control siRNAs (809-ctrl; SEQ ID NO: 4805 (DNA), and SEQ ID NO: 5302 (RNA) and 81ctrl; SEQ ID NO: 4804 (DNA), and SEQ ID NO: 5301 (RNA)). HCT-116 and A549 cells were also similarly transfected with 0.1, 1.0 and 10 nM of three DHFR-specific siRNAs, labeled DHFR-1, DHFR-2 and DHFR-3 (SEQ ID NO: 4836-4838 (DNA), and SEQ ID NO: 5142-5144 (RNA)), or control siRNA (SEQ ID NO: 4805 (DNA), and SEQ ID NO: 5302 (RNA)). Twenty four hours after transfection, cells were exposed to 5FU using a serial dilution starting at 44 μM, in medium containing either 10% normal FCS or 10% dialyzed FCS as described above. 5FU treatment was continuous for 3 days, at which time cell growth was analyzed by measuring DNA content per well using the SYBR Green assay outlined above. […] This combinatorial inhibitory effect was further increased when experiments were done in medium containing dialyzed FCS (FIGS. 27D-F; FIGS. 28D-F).
(§2) FIGS. 29 and 30 show transfection with DHFR siRNA similarly led to a dose-dependent increase in growth inhibition above that caused by the drug alone (control siRNA-transfected cells) in HCT-116 cells (FIGS. 29A-C), and A549 cells (FIGS. 30A-C). This combinatorial inhibitory effect was further increased when experiments were done in medium containing dialyzed FCS (FIGS. 29D-F; FIGS. 30D-F). The changes in the IC50 value for 5FU in HCT-116 and A549 cells following TYMS knockdown by individual siRNAs are listed in Table 16 below.

The subject of data set [3] is A549 cells. Nature of the data set: 5FU toxicity in A549 cells after TYMS or DHFR knockdown, SYBR Green. The format is cell-based, human. To be noted: 5FU continuous for 3 days, read-out: IC50 value of 5FU following TYMS knockdown, A549. The protocol: as §1, §2
The subject of a further data set is A549 xenograft tumor. Nature of the data set: Xenograft tumor growth of A549 cells transfected with siRNA pre-implantation in CD-1 nude mice. The format is in vivo, mouse. The protocol: To determine the effect of RRM1 knockdown on tumor growth, A549 cells (human lung cancer cell line; ATCC No. CCL-185) were reverse-transfected prior to implantation in CD-1 nude mice. In 175 cm^2 culture flasks, 10×10^6 A549 cells (in RPMI supplemented with 10% fetal calf serum) were added to pre-made lipoplexes. To make lipoplexes, Lipofectamine RNAiMAX in serum-free RPMI was added to an equal volume of serum-free RPMI containing siRNA (RRM1-2; SEQ ID NO: 4831 (DNA), and SEQ ID NO: 5137 (RNA)) and a control siRNA (SEQ ID NO: 4804 (DNA), and SEQ ID NO: 5301 (RNA)). After addition of cells, the final concentration of siRNA in the flask was 10 nM. Untransfected cells served as a further control. Flasks were incubated at 37° C. for 24 h to allow transfection to proceed.
The cells were harvested by trypsinization 24 h after the transfection, washed twice in PBS and viable cells were counted. Equal numbers of cells (1×10^7) were inoculated into CD-1 nude mice (n=7-9). Briefly, 5 to 7 weeks old nude mice were subcutaneously (s.c.) injected in the right flank with A549 cells in 100 μl PBS. Tumor growth was monitored 3 times per week by measuring tumor sizes using a digital caliper. Tumor volume was expressed in […] using the formula: V=a^2×b×0.52, where a and b represent the minimum and maximum tumor diameter, respectively. Mean tumor volumes calculated from each measurement were then plotted in a standard graph to compare the tumor growth of transfected cells to that of control.
To determine the effect of siRNA-mediated knockdown of HK-II, CAD, IMPDH2, RRM2, SLC16A1 and SLC29A1 on tumor growth, A549 cells (human lung cancer cell line; ATCC No. CCL-185) were reverse-transfected prior to implantation in CD-1 nude mice as described above with siRNAs given in SEQ ID NO: 5307 (DNA), and SEQ ID NO: 5304 (RNA) for RRM2, SEQ ID NO: 4932 (DNA), and SEQ ID NO: 5227 (RNA) for ENT1, SEQ ID NO: 4813 (DNA), and SEQ ID NO: 5119 (RNA) for HK-II, SEQ ID NO: 4827 (DNA), and SEQ ID NO: 5133 (RNA) for CAD, SEQ ID NO: 4879 (DNA), and SEQ ID NO: 5182 (RNA) for IMPDH2 and SEQ ID NO: 4924 (DNA), and SEQ ID NO: 5219 (RNA) for SLC16A1, respectively. The siRNA given in SEQ ID NO: 4804 (DNA), and SEQ ID NO: 5301 (RNA) was used as control.
In two separate experiments, CD-1 mice were divided into five groups that received untransfected A549 cells, cells transfected with control siRNA or three different siRNAs (as listed above), respectively. Cells were transfected in vitro using the method as described in Example 8, and 24 h after transfection, s.c. inoculated into mice. Tumor growth was measured 3 times per week. In the first experiment, mice received cells transfected with siRNA targeting RRM2, HK-II or SLC29A1 and were monitored for 33 days. In the second experiment, mice received cells transfected with siRNA targeting CAD, IMPDH2 or SLC16A1, and were monitored for 26 days. […] Similarly, preliminary data indicated tumor growth rate was reduced for the groups receiving cells transfected with siRNA targeting CAD and SLC16A1. Twenty-six days after cell inoculation, the tumor volume for mice with cells transfected with siRNA targeting CAD or SLC16A1 was 97.2±7.3 mm^3 or 110.1±28.1 mm^3, respectively.

A further data set has as its system A549 xenografted tumors. Description: Intratumoral siRNA treatment of established A549 tumors in CD-1 nude mice. The class given is in vivo, mouse. Here is the method: A549 cells (6−8×10^6 cells) were s.c. inoculated into CD-1 nude mice as described above. When tumors reached an average volume of approximately 100 mm^3, the tumor-bearing mice were randomly assigned into three different treatment groups (RRM1 siRNA, control siRNA and PBS) with 5 to 6 mice in each group. There were no significant differences in tumor volumes among groups prior to the initiation of treatments. Mice were anesthetized by gaseous isoflurane and 50 μl siRNA or PBS was injected directly into tumors using a 30-gauge needle. Two experiments were conducted. In the first experiment (IT#1), the animals received a dose of 50 μg of siRNA in each intratumoral (i.t.) injection and the injections were performed 3 times per week for 2 weeks. In the second experiment (IT#2), 25 μg siRNA was used and mice were injected 3 times per week for 3 weeks. The tumor volume was determined immediately before each injection by perpendicular measurements of the shortest and longest diameters as described above.

Consider “Alexa 555-labeled siRNA: Alexa 555-labeled control Stealth siRNA (Invitrogen) (chain 1 CCGCAACAACGCCATCTATGAGAAA; chain 2 CCGCAACAACGCCAUCUAUGAGAAA; Alexa 555 label, position not given here, Stealth siRNA, chemistry not given here; one strand in two spellings)”, for which the “cellular uptake of siRNA in tumor tissue (fluorescence)” value in the data set on A549 tumors (6 h after injection) was “red punctuations were seen in some tumor cells, indicative of uptake of siRNA”; in the data set on A549 tumors (24 h after injection) it was “also observed in the samples taken 24 h after injection, although in slightly lower number of cells”. In the data set on A549 tumors (6 h after injection, overlay with DAPI), the “intracellular localization of siRNA fluorescence” value is given as “located in the cytoplasm around the periphery of the nuclei”.
For “SEQ ID NO: 4833: siRNA targeting TYMS (chain 1 AGCAGAGGGAATTCATCTCTCAGGC; chain 2 AGCAGAGGGAAUUCAUCUCUCAGGC; chemistry not given here; one strand in two spellings)”, the “cell growth (MTT assay)” value in the data set with A549 cells [1] is recorded as “dose-dependent inhibition of cell growth”. The “Growth Inhibition in A549 cells” value with A549 cells [2] is “+ (inhibits by at least 50%)”. Moreover, the IC50 in the data set on HCT-116 cells is 100 nM; in the data set on A549 cells [3] (cells transfected with 0.1 nM siRNA), 340 nM; in the data set on A549 cells [3] (cells transfected with 1 nM siRNA), 110 nM; in the data set with A549 cells [3] (cells transfected with 10 nM siRNA), 140 nM.
With “SEQ ID NO: 4804: non-specific control siRNA against an irrelevant target (chain 1 AGCAGAGGGAATTCATCTCTCAGGC; chain 2 AGCAGAGGGAAUUCAUCUCUCAGGC; chemistry not given here; one strand in two spellings) [reference compound]”, the average tumor size is recorded as 370.7±63.8 mm^3 in the data set with A549 xenograft tumor (six weeks after the cell inoculation, 10 nM siRNA pre-implantation) and 172.3±36.1 mm^3 in the data set with A549 xenograft tumor (thirty-three days after the cell inoculation, preliminary data). Moreover, the tumor volume came to 154.3±23.7 mm^3 in the data set on A549 xenograft tumor (twenty-six days after cell inoculation, preliminary data) and 248.9±37.3 mm^3 in the data set with A549 xenografted tumors (IT#2: 25 μg i.t. 3 times per week for 3 weeks, day 21 post-treatment initiation). Besides, in the data set on A549 xenografted tumors (IT#1: 50 μg i.t. 3 times per week for 2 weeks, day 15 after treatment initiation), the average tumor volume is on record as 238.7±41.4 mm^3.
